Some results are limits rather than exact numbers.

One experiment has as its target T1, KDM6A (UTX) (Homo sapiens, UniProt O15550).
T1 construct: 919-1401; host or cells: E. coli
Put plainly: Histone lysine demethylase AlphaLISA assay, KDM6A. To be noted: in vitro enzyme, read-out: KDM6A IC50 (HDME Inhibition). It is filed as biochemical.

The next experiment deals with T2, KDM5B (PLU-1) (Homo sapiens, UniProt Q9UGL1).
T2 construct: 1-809; host or cells: E. coli
T2 sequence (Q9UGL1 1-809): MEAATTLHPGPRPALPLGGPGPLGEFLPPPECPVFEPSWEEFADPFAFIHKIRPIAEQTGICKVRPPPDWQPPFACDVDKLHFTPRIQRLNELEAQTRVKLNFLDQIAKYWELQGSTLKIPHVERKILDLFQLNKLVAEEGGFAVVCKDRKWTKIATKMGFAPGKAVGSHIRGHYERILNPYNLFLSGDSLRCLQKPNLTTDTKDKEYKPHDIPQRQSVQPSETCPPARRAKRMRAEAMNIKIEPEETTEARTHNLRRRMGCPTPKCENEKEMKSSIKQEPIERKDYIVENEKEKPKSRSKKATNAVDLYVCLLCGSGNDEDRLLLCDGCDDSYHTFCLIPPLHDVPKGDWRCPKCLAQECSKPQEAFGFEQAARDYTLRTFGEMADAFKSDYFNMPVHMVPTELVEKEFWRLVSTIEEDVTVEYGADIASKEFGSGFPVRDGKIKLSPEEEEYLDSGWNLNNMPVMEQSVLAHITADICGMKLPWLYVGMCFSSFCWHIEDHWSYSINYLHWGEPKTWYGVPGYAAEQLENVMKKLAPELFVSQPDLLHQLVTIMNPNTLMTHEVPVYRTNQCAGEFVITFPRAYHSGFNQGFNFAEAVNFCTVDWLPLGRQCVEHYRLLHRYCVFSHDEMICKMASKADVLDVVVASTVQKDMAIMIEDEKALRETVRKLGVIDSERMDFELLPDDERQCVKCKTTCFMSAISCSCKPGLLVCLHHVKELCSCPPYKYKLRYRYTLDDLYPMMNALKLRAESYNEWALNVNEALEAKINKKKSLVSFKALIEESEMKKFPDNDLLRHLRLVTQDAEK
Put plainly: Histone lysine demethylase AlphaLISA assay, KDM5B. The settings on record: in vitro enzyme, read-out: KDM5B IC50 (HDME Inhibition). It is filed as biochemical.

Another experiment has as its target PHF8 (KDM7) (Homo sapiens, UniProt Q9UPP1). The experiment in a line: Histone lysine demethylase AlphaLISA assay, PHF8. Format: biochemical. The settings on record: in vitro enzyme, read-out: PHF8 IC50 (HDME Inhibition). A general note: Bead proximity is the source of the signal in Alpha formats.
The target in the next experiment is T3, KDM4C (JMJD2C) (Homo sapiens, UniProt Q9H3R0).
T3 construct: 1-349; host or cells: E. coli
T3 sequence (Q9H3R0 1-349): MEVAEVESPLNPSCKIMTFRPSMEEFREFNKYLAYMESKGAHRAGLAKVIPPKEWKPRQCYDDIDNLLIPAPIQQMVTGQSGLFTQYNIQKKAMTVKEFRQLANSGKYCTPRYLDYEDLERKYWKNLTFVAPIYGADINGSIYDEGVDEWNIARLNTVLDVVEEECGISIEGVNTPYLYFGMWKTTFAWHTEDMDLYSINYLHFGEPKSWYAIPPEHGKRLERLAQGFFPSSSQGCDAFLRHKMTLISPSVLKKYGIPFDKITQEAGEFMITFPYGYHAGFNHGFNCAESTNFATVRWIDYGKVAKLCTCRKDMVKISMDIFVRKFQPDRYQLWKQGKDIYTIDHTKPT
The experiment in a line: Histone lysine demethylase AlphaLISA assay, KDM4C. Format: biochemical. To be noted: in vitro enzyme, read-out: KDM4C IC50 (HDME Inhibition).

In the next experiment the target is T4, KDM2B (FBXL10) (Homo sapiens, UniProt Q8NHM5).
T4 construct: 1-650; purchased BPS Bioscience, US; host or cells: Bac (baculovirus/insect cells)
T4 sequence (Q8NHM5 1-650): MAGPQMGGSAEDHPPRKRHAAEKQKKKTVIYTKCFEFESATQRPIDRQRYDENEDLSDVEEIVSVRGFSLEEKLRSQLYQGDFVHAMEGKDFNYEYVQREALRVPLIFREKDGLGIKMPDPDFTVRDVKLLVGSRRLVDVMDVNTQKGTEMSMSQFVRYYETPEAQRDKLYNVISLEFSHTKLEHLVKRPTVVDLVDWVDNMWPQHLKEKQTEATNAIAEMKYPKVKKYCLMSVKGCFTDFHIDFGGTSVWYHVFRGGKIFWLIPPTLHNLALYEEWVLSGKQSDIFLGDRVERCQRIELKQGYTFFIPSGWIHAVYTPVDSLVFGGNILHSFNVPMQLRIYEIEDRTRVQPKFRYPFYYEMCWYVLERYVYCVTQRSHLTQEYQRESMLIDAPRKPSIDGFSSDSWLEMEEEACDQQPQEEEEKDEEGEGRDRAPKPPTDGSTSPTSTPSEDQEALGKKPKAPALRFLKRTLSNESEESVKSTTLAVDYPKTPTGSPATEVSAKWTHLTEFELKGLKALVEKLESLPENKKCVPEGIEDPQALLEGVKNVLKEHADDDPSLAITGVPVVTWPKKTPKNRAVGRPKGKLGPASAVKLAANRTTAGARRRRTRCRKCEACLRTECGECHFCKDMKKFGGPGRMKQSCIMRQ
The experiment in a line: Histone lysine demethylase AlphaLISA assay, KDM2B. Format: biochemical. To be noted: in vitro enzyme, read-out: KDM2B IC50 (HDME Inhibition).

The subject of experiment [1] is H3K4me3 mark in U2OS cells. Put plainly: Histone lysine demethylase immunofluorescence assay, non-transfected U2OS cells. It is filed as cell-based. To be noted: Homo sapiens, 20 hours incubation, read-out: IC50 value, staining of the H3K4me3 mark in cells. On the procedure: Generally, the cells are incubated with compounds, washed and incubated with a methylation specific antibody before imaging. IC50 values are determined by measurement of the H3K4me3 staining.
Histone Lysine Demethylase Immunofluorescence Assays for IC50 value Determination, non-transfected cells
U2OS cells are harvested and seeded into multi well plates into media containing compound. The media is DMEM containing 5% FBS and pen/strep. 20 hours after incubation of cells with compounds, the cells are washed once in PBS, harvested by fixation with formaldehyde 4% aqueous solution, and washed in PBS. Subsequently, the cells are permeabilized in PBS with 0.2% Triton X-100. Blocking is performed in PBS with 0.2% Triton X-100 and 5% FBS. The cells are incubated with αH3K4me3 primary antibody (Cell Signaling, #9751S) in blocking solution over night at 4° C. After incubation with primary antibody, the cells are washed with PBS, incubated with secondary antibody (Alexa fluor 594 goat anti rabbit IgG, Invitrogen, A11012) and Hoechst, (Sigma, 33342) in blocking solution, and washed again with PBS. Finally, PBS is added and high throughput imaging and analysis are performed by an IN Cell Analyzer 1000 (GE Healthcare). IC50 values are determined based on an average measure of the staining of the H3K4me3 mark in cells.

Chain of PHF8 (KDM7) (Q9UPP1 whole entry): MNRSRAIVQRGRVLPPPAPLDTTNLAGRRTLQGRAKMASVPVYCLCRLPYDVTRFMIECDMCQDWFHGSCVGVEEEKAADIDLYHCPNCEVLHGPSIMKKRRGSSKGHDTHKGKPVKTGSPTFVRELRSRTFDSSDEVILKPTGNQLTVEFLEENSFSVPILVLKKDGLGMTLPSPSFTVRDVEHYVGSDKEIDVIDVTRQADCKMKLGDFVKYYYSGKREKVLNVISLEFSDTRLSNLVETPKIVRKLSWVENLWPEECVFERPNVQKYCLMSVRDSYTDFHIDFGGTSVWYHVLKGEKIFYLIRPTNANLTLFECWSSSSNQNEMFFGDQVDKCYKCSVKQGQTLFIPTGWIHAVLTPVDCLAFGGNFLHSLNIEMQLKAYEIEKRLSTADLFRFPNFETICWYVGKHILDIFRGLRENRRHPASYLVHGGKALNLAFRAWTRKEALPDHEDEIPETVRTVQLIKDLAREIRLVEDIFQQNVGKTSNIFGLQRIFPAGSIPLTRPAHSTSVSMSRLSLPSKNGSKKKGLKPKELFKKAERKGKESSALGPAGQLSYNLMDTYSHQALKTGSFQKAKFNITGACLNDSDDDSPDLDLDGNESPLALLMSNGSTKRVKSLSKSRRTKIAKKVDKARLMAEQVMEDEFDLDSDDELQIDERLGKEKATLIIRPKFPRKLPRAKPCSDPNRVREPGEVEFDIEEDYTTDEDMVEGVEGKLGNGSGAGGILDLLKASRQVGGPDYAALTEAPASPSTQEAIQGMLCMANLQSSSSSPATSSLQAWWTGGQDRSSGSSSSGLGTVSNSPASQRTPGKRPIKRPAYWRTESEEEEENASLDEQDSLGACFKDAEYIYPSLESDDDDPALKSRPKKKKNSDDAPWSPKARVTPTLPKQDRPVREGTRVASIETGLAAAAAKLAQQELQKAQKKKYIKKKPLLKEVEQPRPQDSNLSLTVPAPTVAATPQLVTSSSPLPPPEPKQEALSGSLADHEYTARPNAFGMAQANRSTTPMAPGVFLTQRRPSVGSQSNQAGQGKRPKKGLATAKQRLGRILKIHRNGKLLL
T1 sequence (O15550 919-1401): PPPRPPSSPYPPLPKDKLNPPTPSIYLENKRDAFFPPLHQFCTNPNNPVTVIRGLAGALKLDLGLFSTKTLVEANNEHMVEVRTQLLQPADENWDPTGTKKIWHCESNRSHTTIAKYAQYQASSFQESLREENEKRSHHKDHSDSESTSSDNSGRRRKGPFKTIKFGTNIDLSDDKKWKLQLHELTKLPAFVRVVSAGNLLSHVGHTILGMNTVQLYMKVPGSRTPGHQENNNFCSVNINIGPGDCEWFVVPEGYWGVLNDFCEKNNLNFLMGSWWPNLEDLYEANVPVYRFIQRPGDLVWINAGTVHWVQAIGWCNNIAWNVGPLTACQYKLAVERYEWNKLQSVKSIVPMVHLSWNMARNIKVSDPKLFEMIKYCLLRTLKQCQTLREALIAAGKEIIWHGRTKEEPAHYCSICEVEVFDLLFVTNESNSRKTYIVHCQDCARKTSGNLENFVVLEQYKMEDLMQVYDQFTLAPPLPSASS

For `COc1ccc([C@@H](C)N2CCC[C@H](CNCc3cc(C(=O)O)ccn3)C2=O)cc1` [Compound 81, 2-[({[(3R)-1-[(1R)-1-(4-methoxyphenyl)ethyl]-2-oxopiperidin-3-yl]methyl}amino)methyl]pyridine-4-carboxylic acid], the IC50 was above 2500 nM at KDM6A (UTX); below 250 nM on KDM5B (PLU-1); 250 to 2500 nM at PHF8 (KDM7); 250 to 2500 nM on KDM4C (JMJD2C); below 250 nM at KDM2B (FBXL10).

On to `C[C@H](c1ccccc1)N1CCC[C@H](CNCc2cc(C(=O)O)ccn2)C1=O` [Compound 2, 2-[({[(3R)-2-oxo-1-[(1R)-1-phenylethyl]piperidin-3-yl]methyl}amino)methyl]pyridine-4-carboxylic acid], for which the IC50 on KDM6A (UTX) is above 2500 nM; on KDM5B (PLU-1) it was below 250 nM; on PHF8 (KDM7), 250 to 2500 nM; at KDM4C (JMJD2C) it was below 250 nM; on KDM2B (FBXL10) it was below 250 nM.

As for `O=C(O)c1ccnc(CNC2CCc3cc(Br)cnc32)c1` (stereo not shown) [Compound 103, 2-[({3-bromo-5H,6H,7H-cyclopenta[b]pyridin-7-yl}amino)methyl]pyri-dine-4-carboxylic acid], the half-inhibitory concentration (IC50) at KDM6A (UTX) was above 2500 nM; on PHF8 (KDM7), below 250 nM; at KDM4C (JMJD2C) it was 250 to 2500 nM; at KDM2B (FBXL10), below 250 nM.

For `C[C@H](c1ccccc1)N1CCC[C@@H](CNCc2cc(C(=O)O)ccn2)C1=O` [Compound 14, 2-[({[(3S)-2-oxo-1-[(1R)-1-phenylethyl]piperidin-3-yl]methyl}amino)methyl]pyridine-4-carboxylic acid], the IC50 is above 2500 nM on KDM6A (UTX); below 250 nM at KDM5B (PLU-1); 250 to 2500 nM at PHF8 (KDM7); 250 to 2500 nM on KDM4C (JMJD2C); 250 to 2500 nM at KDM2B (FBXL10).

As for `C[C@H](c1ccccc1)N1CC[C@@H](CNCc2cc(C(=O)O)ccn2)C1=O` [Compound 17, 2-[({[(3S)-2-oxo-1-[(1R)-1-phenylethyl]pyrrolidin-3-yl]methyl}amino)methyl]pyridine-4-carboxylic acid], the concentration for half-maximal inhibition (IC50) was above 2500 nM on KDM6A (UTX); below 250 nM at KDM5B (PLU-1); 250 to 2500 nM on PHF8 (KDM7); 250 to 2500 nM on KDM4C (JMJD2C); below 250 nM on KDM2B (FBXL10).

As for `CCN1CCC(CNCc2cc(C(=O)O)ccn2)C1=O` (stereo not shown) [Compound 39, 2-({[(1-ethyl-2-oxopyrrolidin-3-yl)methyl]amino}methyl)pyridine-4-carboxylic acid], the 50% inhibitory concentration (IC50) on KDM6A (UTX) was above 2500 nM; at KDM5B (PLU-1), below 250 nM; at PHF8 (KDM7), 250 to 2500 nM; at KDM4C (JMJD2C), 250 to 2500 nM; on KDM2B (FBXL10), below 250 nM.

As for `O=C(O)c1cc(CNCC(=O)N2CCCCC2)ncn1` [Compound 35, 6-({[2-oxo-2-(piperidin-1-yl)ethyl]amino}methyl) pyrimidine-4-carboxylic acid], the IC50 at KDM6A (UTX) is above 2500 nM; on PHF8 (KDM7) it was 250 to 2500 nM; on KDM4C (JMJD2C), 250 to 2500 nM; at KDM2B (FBXL10), 250 to 2500 nM.

`CC(C)(C)OC(=O)NCCCC[C@@H](CO)NCc1cc(C(=O)O)ccn1` [Compound 22, 2-({[(2S)-6-{[(tert-butoxy)carbonyl]amino}-1-hydroxyhexan-2-yl]amino}methyl)pyri-dine-4-carboxylic acid]: the IC50 on KDM6A (UTX) is above 2500 nM; at KDM5B (PLU-1), below 250 nM; at KDM4C (JMJD2C) it was 250 to 2500 nM; on KDM2B (FBXL10), below 250 nM.

Turning to `C=CCN(CC=C)C(=O)[C@@H](CCS(C)(=O)=O)NCc1cc(C(=O)O)ccn1` [Compound 37, 2-({[(1R)-1-[bis(prop-2-en-1-yl)carbamoyl]-3-methanesulfonylpropyl]amino}methyl)pyridine-4-carboxylic acid], the concentration for half-maximal inhibition (IC50) on KDM6A (UTX) was above 2500 nM; at KDM5B (PLU-1), 250 to 2500 nM; on PHF8 (KDM7), below 250 nM; on KDM4C (JMJD2C), above 2500 nM; on KDM2B (FBXL10) it was below 250 nM.

As for `O=C(N1CC2(CC2)COC1c1ccnc(CN2CCCn3ccnc3C2)c1)C(F)(F)F` (stereo not shown) [Compound 108, 2,2,2-trifluoro-1-[6-(2-{5H,6H,7H,8H,9H-imidazo[1,2-a][1,4]diazepin-8-ylmethyl}pyridin-4-yl)-5-oxa-7-azaspiro[2.5]octan-7-yl]ethan-1-one], the IC50 was below 250 nM on KDM5B (PLU-1), 250 to 2500 nM at KDM4C (JMJD2C), below 2500 nM in experiment [1] and 250 to 2500 nM on KDM2B (FBXL10).

As for `Cc1cn2c(n1)CCN(Cc1cc(C(=O)O)ccn1)CC2` [Compound 69, 2-({2-methyl-5H,6H,7H,8H,9H-imidazo[1,2-d][1,4]diazepin-7-yl}methyl)pyridine-4-carboxylic acid], the IC50 was above 2500 nM on KDM6A (UTX); below 250 nM on KDM5B (PLU-1); 250 to 2500 nM at PHF8 (KDM7); 250 to 2500 nM at KDM4C (JMJD2C); above 2500 nM at KDM2B (FBXL10).

Turning to `NC(=O)CCN(CC(=O)N1CCCCC1)Cc1cc(C(=O)O)ccn1` [Compound 34, 2-{[(2-carbamoylethyl)[2-oxo-2-(piperidin-1-yl)ethyl]amino]methyl} pyridine-4-carboxylic acid], the IC50 at KDM6A (UTX) is above 2500 nM; at KDM5B (PLU-1), below 250 nM; on PHF8 (KDM7), 250 to 2500 nM; on KDM4C (JMJD2C), 250 to 2500 nM; on KDM2B (FBXL10) it was 250 to 2500 nM.

As for `COc1ccc([C@@H](C)N2CCC[C@@H](CNCc3cc(C(=O)O)ccn3)C2=O)cc1` [Compound 80, 2-[({[(3S)-1-[(1R)-1-(4-methoxyphenyl)ethyl]-2-oxopiperidin-3-yl]methyl}amino)methyl]pyridine-4-carboxylic acid], the IC50 was above 2500 nM on KDM6A (UTX); below 250 nM on KDM5B (PLU-1); 250 to 2500 nM on PHF8 (KDM7); 250 to 2500 nM on KDM4C (JMJD2C); below 250 nM on KDM2B (FBXL10).

What is called IC50 is the midpoint of a concentration-inhibition curve.

The record behind these values is patent US20170369444A1, “INHIBITORS OF HISTONE DEMETHYLASES” (Gilead Sciences, Inc., priority 2014, published 2017).
